The results in this text go back to patent US9693997B2, “Antiviral compounds” (priority 2013, dated 2017).

Where a name gives a salt, the structure may show the parent alone.

In assay [1] the test system is pseudotyped VSV G particles (VSVpp) in Huh7-high CD81 cells. Briefly: microbe, parasite or virus in culture. The note with it: Vesicular stomatitis virus, 72 h, read-out: VSVpp (EC50, μM). Format: cell-based, vesicular stomatitis virus.
For assay [2], the system named is Pseudotyped HCV GT1b particles (HCVpp), entry into Huh7-high CD81 cells. Nature of the assay: microbe, parasite or virus in culture. Format: cell-based, HCV GT1b Con1 strain. The note with it: Hepatitis C virus, GT1B, 72 h, read-out: HCVpp GT-1b (EC50, μM).

As to `Nc1nc(Nc2cc(Cl)c(-c3cccc(Cl)c3Cl)c(Cl)c2)n[nH]1` [Compound 109, N-3-(2,6,2′,3′-Tetrachloro-biphenyl-4-yl)-1H-[1,2,4]triazole-3,5-diamine], the EC50 (as a rule, the concentration giving half of the maximal effect) in assay [1] turned out to be 46.5 µM; in assay [2] it was 0.74 µM.

For the molecule `COC(=O)c1ccc(-c2c(Cl)cc(Nc3n[nH]c(N)n3)cc2Cl)cc1` [Compound 110, 4′-(5-Amino-1H-[1,2,4]triazol-3-ylamino)-2′,6′-dichloro-biphenyl-4-carboxylic acid methyl ester], the EC50 in assay [1] worked out at 25 µM; in assay [2], 0.1 µM.

Turning to `CN(C)C(=O)c1ccc(-c2c(Cl)cc(Nc3n[nH]c(N)n3)cc2Cl)cc1` [Compound 113, 4′-(5-Amino-1H-[1,2,4]triazol-3-ylamino)-2′,6′-dichloro-biphenyl-4-carboxylic acid dimethylamide], the EC50 in assay [1] was determined as 43.2 µM; in assay [2], 0.079 µM.

`CNS(=O)(=O)c1cccc(-c2c(Cl)cc(Nc3n[nH]c(N)n3)cc2Cl)c1` [Compound 119, 4′-(5-Amino-1H-[1,2,4]triazol-3-ylamino)-2′,6′-dichloro-biphenyl-3-sulfonic acid methylamide]: the EC50 was found to be 3.94 µM in assay [1] and 0.046 µM in assay [2].

Take `COc1ccccc1-c1c(Cl)cc(Nc2n[nH]c(N)n2)cc1Cl` [Compound 120, N-3-(2,6-Dichloro-2′-methoxy-biphenyl-4-yl)-1H-[1,2,4]triazole-3,5-diamine]: the EC50 in assay [1] was 1.12 µM; in assay [2] it was 0.181 µM.

For `CS(=O)(=O)c1ccc(-c2c(Cl)cc(Nc3n[nH]c(N)n3)cc2Cl)cc1F` [Compound 121, N-3-(2,6-Dichloro-3′-fluoro-4′-methanesulfonyl-biphenyl-4-yl)-1H-[1,2,4]triazole-3,5-diamine], the EC50 in assay [1] was found to be 0.08 µM; in assay [2] it was 0.068 µM.

For the molecule `Nc1nc(Nc2cc(Cl)c(-c3ccc(Cl)cc3Cl)c(Cl)c2)n[nH]1` [Compound 124, N-3-(2,6,2′,4′-Tetrachloro-biphenyl-4-yl)-1H-[1,2,4]triazole-3,5-diamine], the figures for the EC50 in assay [1] and in assay [2] were 4.49 µM and 1.01 µM, respectively.

For `CN(CCOc1ccc(-c2c(Cl)cc(Nc3n[nH]c(N)n3)cc2C(F)(F)F)cc1)C(=O)OC(C)(C)C` [Compound 125, {2-[4′-(5-Amino-1H-[1,2,4]triazol-3-ylamino)-6′-chloro-2′-trifluoromethyl-biphenyl-4-yloxy]-ethyl}-methyl-carbamic acid tert-butyl ester], the EC50 was over 10 µM in assay [1] and 0.096 µM in assay [2].

Consider `CNCCOc1ccc(-c2c(Cl)cc(Nc3n[nH]c(N)n3)cc2C(F)(F)F)cc1` [Compound 126, N*3*-[6-Chloro-4′-(2-methylamino-ethoxy)-2-trifluoromethyl-biphenyl-4-yl]-1H-[1,2,4]triazole-3,5-diamine hydrochloride], for which the EC50 in assay [1] is over 10 µM; in assay [2], 0.088 µM.

Regarding `CN1C(C)(C)CC(Sc2ccc(-c3c(Cl)cc(Nc4n[nH]c(N)n4)cc3C(F)(F)F)cc2)CC1(C)C` [Compound 127, N*3*-[6-Chloro-4′-(1,2,2,6,6-pentamethyl-piperidin-4-ylsulfanyl)-2-trifluoromethyl-biphenyl-4-yl]-1H-[1,2,4]triazole-3,5-diamine], the EC50 in assay [1] came out at 9.69 µM; in assay [2] it was 0.144 µM.

Consider `CN(C(=O)OC(C)(C)C)C(C)(C)COc1ccc(-c2c(Cl)cc(Nc3n[nH]c(N)n3)cc2C(F)(F)F)cc1` [Compound 128, {2-[4′-(5-Amino-1H-[1,2,4]triazol-3-ylamino)-6′-chloro-2′-trifluoromethyl-biphenyl-4-yloxy]-1,1-dimethyl-ethyl}-methyl-carbamic acid tert-butyl ester], for which the EC50 turned out to be 9.26 µM in assay [1] and 0.011 µM in assay [2].

For `CC(C)(C)OC(=O)N1CCCC(Oc2ccc(-c3c(Cl)cc(Nc4n[nH]c(N)n4)cc3C(F)(F)F)cc2)C1` (stereo not drawn) [Compound 129, 3-[4′-(5-Amino-1H-[1,2,4]triazol-3-ylamino)-6′-chloro-2′-trifluoromethyl-biphenyl-4-yloxy]-piperidine-1-carboxylic acid tert-butyl ester], the values for the EC50 in assay [1] and in assay [2] were 9.62 µM and 0.017 µM, respectively.

`Nc1nc(Nc2cc(Cl)c(-c3ccc(OC4CCCNC4)cc3)c(C(F)(F)F)c2)n[nH]1` (stereo not drawn) [Compound 130, N*3*-[6-Chloro-4′-(piperidin-3-yloxy)-2-trifluoromethyl-biphenyl-4-yl]-1H-[1,2,4]triazole-3,5-diamine hydrochloride]: the EC50 in assay [1] is 8.67 µM; in assay [2], 0.055 µM.

In the case of `CC(C)(C)CCN1CCCC(Oc2ccc(-c3c(Cl)cc(Nc4n[nH]c(N)n4)cc3C(F)(F)F)cc2)C1` (stereo not drawn) [Compound 131, N*3*-{6-Chloro-4′-[1-(3,3-dimethyl-butyl)-piperidin-3-yloxy]-2-trifluoromethyl-biphenyl-4-yl}-1H-[1,2,4]triazole-3,5-diamine hydrochloride], the concentration giving a half-maximal response (EC50) in assay [1] was 7.02 µM; in assay [2], 0.095 µM.

On to `CN1CCCC(Oc2ccc(-c3c(Cl)cc(Nc4n[nH]c(N)n4)cc3C(F)(F)F)cc2)C1` (stereo not drawn) [Compound 132, N*3*-[6-Chloro-4′-(1-methyl-piperidin-3-yloxy)-2-trifluoromethyl-biphenyl-4-yl]-1H-[1,2,4]triazole-3,5-diamine hydrochloride], for which the results for the EC50 in assay [1] and in assay [2] were 6.13 µM and 0.088 µM, respectively.

As for `Nc1nc(Nc2cc(Cl)c(-c3ccc(OC4CCCN(CCC(F)(F)F)C4)cc3)c(C(F)(F)F)c2)n[nH]1` (stereo not drawn) [Compound 133, N*3*-{6-Chloro-2-trifluoromethyl-4′-[1-(3,3,3-trifluoro-propyl)-piperidin-3-yloxy]-biphenyl-4-yl}-1H-[1,2,4]triazole-3,5-diamine hydrochloride], the figures for the EC50 in assay [1] and in assay [2] were over 10 µM and 0.13 µM, respectively.

In the case of `CC(C)(C)OC(=O)NCCOc1ccc(-c2c(Cl)cc(Nc3n[nH]c(N)n3)cc2C(F)(F)F)cc1` [Compound 134, {2-[4′-(5-Amino-1H-[1,2,4]triazol-3-ylamino)-6′-chloro-2′-trifluoromethyl-biphenyl-4-yloxy]-ethyl}-carbamic acid tert-butyl ester], the EC50 in assay [1] was over 10 µM; in assay [2] it was 0.081 µM.

As to `NCCOc1ccc(-c2c(Cl)cc(Nc3n[nH]c(N)n3)cc2C(F)(F)F)cc1` [Compound 135, N*3*-[4′-(2-Amino-ethoxy)-6-chloro-2-trifluoromethyl-biphenyl-4-yl]-1H-[1,2,4]-triazole-3,5-diamine hydrochloride], the EC50 in assay [1] was over 10 µM; in assay [2], 0.077 µM.

With `CC(C)(C)CCNCCOc1ccc(-c2c(Cl)cc(Nc3n[nH]c(N)n3)cc2C(F)(F)F)cc1` [Compound 136, N*3*-{6-Chloro-4′-[2-(3,3-dimethyl-butylamino)-ethoxy]-2-trifluoromethyl-biphenyl-4-yl}-1H-[1,2,4]triazole-3,5-diamine hydrochloride], the results for the EC50 in assay [1] and in assay [2] were 3.08 µM and 0.005 µM, respectively.

On to `CC(C)(C)CCN(CCOc1ccc(-c2c(Cl)cc(Nc3n[nH]c(N)n3)cc2C(F)(F)F)cc1)CCC(C)(C)C` [Compound 137, N*3*-(4′-{2-[Bis-(3,3-dimethyl-butyl-amino)-ethoxy}-6-chloro-2-trifluoromethyl-biphenyl-4-yl]-1H-[1,2,4]triazole-3,5-diamine], for which the EC50 was over 10 µM in assay [1] and 0.062 µM in assay [2].

For the molecule `CC(C)(C)OC(=O)N1CCC(Oc2ccc(-c3c(Cl)cc(Nc4n[nH]c(N)n4)cc3C(F)(F)F)cc2)CC1` [Compound 138, 4-[4′-(5-Amino-1H-[1,2,4]triazol-3-ylamino)-6′-chloro-2′-trifluoromethyl-biphenyl-4-yloxy]-piperidine-1-carboxylic acid tert-butyl ester], the EC50 was over 10 µM in assay [1] and 0.162 µM in assay [2].

Turning to `Nc1nc(Nc2cc(Cl)c(-c3ccc(OC4CCNCC4)cc3)c(C(F)(F)F)c2)n[nH]1` [Compound 139, N*3*-[6-Chloro-4′-(piperidin-4-yloxy)-2-trifluoromethyl-biphenyl-4-yl]-1H-[1,2,4]triazole-3,5-diamine hydrochloride], the EC50 in assay [1] is 5.66 µM; in assay [2], 0.042 µM.

As to `Nc1nc(Nc2cc(Cl)c(-c3ccc(OC4CCN(CCC(F)(F)F)CC4)cc3)c(C(F)(F)F)c2)n[nH]1` [Compound 140, N*3*-{6-Chloro-2-trifluoromethyl-4′-[1-(3,3,3-trifluoro-propyl)-piperidin-4-yloxy]-biphenyl-4-yl}-1H-[1,2,4]triazole-3,5-diamine hydrochloride], the EC50 was over 10 µM in assay [1] and 0.111 µM in assay [2].

With `CS(=O)(=O)CCN1CCC(Oc2ccc(-c3c(Cl)cc(Nc4n[nH]c(N)n4)cc3C(F)(F)F)cc2)CC1` [Compound 141, N*3*-{6-Chloro-4′-[1-(2-methanesulfonyl-ethyl)-piperidin-4-yloxy]-2-trifluoromethyl-biphenyl-4-yl}-1H-[1,2,4]triazole-3,5-diamine hydrochloride], the results for the EC50 in assay [1] and in assay [2] were over 10 µM and 0.194 µM, respectively.

On to `CS(=O)(=O)CCCN1CCC(Oc2ccc(-c3c(Cl)cc(Nc4n[nH]c(N)n4)cc3C(F)(F)F)cc2)CC1` [Compound 142, N*3*-{6-Chloro-4′-[1-(3-methanesulfonyl-propyl)-piperidin-4-yloxy]-2-trifluoromethyl-biphenyl-4-yl}-1H-[1,2,4]triazole-3,5-diamine hydrochloride], for which the EC50 in assay [1] is over 10 µM; in assay [2], 0.242 µM.

For `COCCN1CCC(Oc2ccc(-c3c(Cl)cc(Nc4n[nH]c(N)n4)cc3C(F)(F)F)cc2)CC1` [Compound 143, N*3*-{6-Chloro-4′-[1-(2-methoxy-ethyl)-piperidin-4-yloxy]-2-trifluoromethyl-biphenyl-4-yl}-1H-[1,2,4]triazole-3,5-diamine hydrochloride], the results for the EC50 in assay [1] and in assay [2] were 8.98 µM and 0.231 µM, respectively.

For the molecule `Nc1nc(Nc2ccc(-c3ccccc3F)c(Cl)c2)n[nH]1` [Compound 146, N*3*-(2-Chloro-2′-fluoro-biphenyl-4-yl)-1H-[1,2,4]triazole-3,5-diamine], the EC50 was determined as 29.4 µM in assay [1] and 2.88 µM in assay [2].
